Assay results from patent publication US9463216B2 (priority 2012, dated 2016).

Key:
recombinant LT (PA + LF) = recombinant LT (PA + LF) (Bacillus anthracis, UniProt P13423); parameters: species or system BALB/cJ mice; conditions: mouse, in vivo
lethal toxin (PA + LF) = lethal toxin (PA + LF) (Bacillus anthracis, UniProt P13423)
PA [1] = type: biochemical, B. anthracis
PA [2] = biological target: PA (Bacillus anthracis, UniProt P13423); type: binding, B. anthracis
[3] = tested on: PA uptake by J774 macrophages, ANTXR2-expressing (CCHO) and ANTXR2-null (PR230) chinese hamster ovary cells; type: cell-based, chinese hamster (CHO cells)
[4] = tested on: J774 macrophages and PR230 cells; type: cell-based, chinese hamster (PR230 cells)

Sequence of lethal toxin (PA + LF) (P13423 30-764 limits assumed): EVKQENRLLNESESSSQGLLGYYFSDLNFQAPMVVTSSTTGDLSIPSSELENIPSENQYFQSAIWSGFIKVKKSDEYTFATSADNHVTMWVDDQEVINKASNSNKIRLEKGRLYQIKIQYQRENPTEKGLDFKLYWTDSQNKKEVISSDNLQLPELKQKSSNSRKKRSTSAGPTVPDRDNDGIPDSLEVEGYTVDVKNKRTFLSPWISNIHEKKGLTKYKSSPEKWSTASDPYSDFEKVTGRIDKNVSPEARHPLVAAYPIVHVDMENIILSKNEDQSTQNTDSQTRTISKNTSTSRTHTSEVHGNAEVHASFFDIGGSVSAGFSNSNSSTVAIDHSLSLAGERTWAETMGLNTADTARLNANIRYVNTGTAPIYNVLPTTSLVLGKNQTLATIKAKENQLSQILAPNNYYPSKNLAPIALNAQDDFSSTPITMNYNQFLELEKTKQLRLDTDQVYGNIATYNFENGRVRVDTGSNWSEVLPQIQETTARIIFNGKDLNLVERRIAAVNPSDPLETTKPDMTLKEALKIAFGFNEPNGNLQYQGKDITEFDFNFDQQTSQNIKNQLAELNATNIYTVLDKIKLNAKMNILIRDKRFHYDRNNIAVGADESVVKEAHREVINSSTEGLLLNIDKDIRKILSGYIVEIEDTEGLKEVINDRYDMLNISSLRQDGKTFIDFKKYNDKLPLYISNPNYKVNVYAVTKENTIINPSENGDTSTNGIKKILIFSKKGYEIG
Sequence of recombinant LT (PA + LF) (P13423 30-764 limits assumed): as above
Sequence of PA (Bacillus anthracis, UniProt P13423) (P13423 30-764 limits assumed): as above

Compound | protection of mice from LT (recombinant LT (PA + LF)) | LT inhibitory activity of metal ion chelates (lethal toxin (PA + LF)) | inhibit LT-mediated cytolysis in bone marrow macrophage cells (lethal toxin (PA + LF)) | inhibition of PA oligomers (lethal toxin (PA + LF)) | effect on PA-binding to ANTXR2 or LF, PA oligomerization, or channel formation in vitro (PA [1]) | form complexes with PA (PA [2]) | effect on cell uptake of PA [3] | further results
N[C@@H](CCC(=O)O)C(=O)O [L-Glu, reference compound] | did not protect mice from LT | – | – | – | – | – | – | –
Fe(III) [reference compound] | – | – | – | – | – | – | – | concentration at which Fe(III) alone may inhibit LT (lethal toxin (PA + LF)): 10 mM; inhibitory Fe(III) concentration relative to concentrations effective in the Fe(III) co-complexes of compounds 1, 2, and 3 (lethal toxin (PA + LF)): 10^3-10^4 fold; inhibitory activity of Fe(III) alone (lethal toxin (PA + LF)): did not possess inhibitory activity
bovine serum albumin [reference compound] | did not protect mice from LT | – | – | – | – | – | – | –
γ-DLPGA [Compound 1] | completely protected | only the Fe(III) chelate had LT inhibitory activity | could inhibit | equally inhibited | do not affect | can form complexes with PA | prevent proper cell uptake | affinity for PA, higher than compound 2 (PA [2]): 10 fold
γ-DPGA [Compound 2] | completely protected | only the Fe(III) chelate had LT inhibitory activity | could inhibit | equally inhibited | do not affect | can form complexes with PA | prevent proper cell uptake | inhibitory activity after treatment with Cap D (recombinant LT (PA + LF)): abolished the inhibitory activity; formation of co-complexes with PA after pretreatment with Cap D (PA [2]): prevents formation of co-complexes with PA; binding to J774 macrophages and PR230 cells [4]: equal affinity; binding to Pronase-treated PR230 cells [4]: significantly reduced; stimulation of PA internalization after pretreatment with Cap D [3]: eliminates the stimulation of PA internalization
